The values that follow come from PMC8044163, “Vitamin D and lumisterol derivatives can act on liver X receptors (LXRs)” (Scientific Reports, 2021).

Experiment [1] deals with LXR-response element (LXRE)-driven reporter in CHO cells. As to the kind of experiment: LXRE-driven luciferase reporter assay in CHO cells. Type of experiment: cell-based. The note with it: 10^–7 M. The protocol: The effects of vitamin D3 and L3 hydroxyderivatives were tested on the LXRE transcriptional activity using pGreenFire1-LXRE-in-ApoE Lentivirus (System Biosciences, Palo Alto, CA). This plasmid was transduced in CHO and HaCaT cells following the manufacture’s protocol and the cells used as a stable LXRE expressed tool. Briefly, the virus was transduced into the cells using TransDux MAX Lentivirus Transduction Enhancer (System Biosciences, Palo Alto, CA) and screened to select the transduced cells using puromycin. The transduced cells were treated with the compounds for 24 h in media containing 5% cFBS (charcoal-treated fetal bovine serum) and the luminescence was read by ONE-Glo Luciferase Assay System (Promega, Madison, WI) using Cytation 5 (BioTek, Winooski, VT).
Background: A reporter such as luciferase makes a cellular process visible.

For a further experiment, the target named is T1, LBD of LXRβ (Homo sapiens, UniProt P55055).
T1 construct: purchased Thermo Fisher Scientific
T1 sequence (P55055 222-460 limits assumed): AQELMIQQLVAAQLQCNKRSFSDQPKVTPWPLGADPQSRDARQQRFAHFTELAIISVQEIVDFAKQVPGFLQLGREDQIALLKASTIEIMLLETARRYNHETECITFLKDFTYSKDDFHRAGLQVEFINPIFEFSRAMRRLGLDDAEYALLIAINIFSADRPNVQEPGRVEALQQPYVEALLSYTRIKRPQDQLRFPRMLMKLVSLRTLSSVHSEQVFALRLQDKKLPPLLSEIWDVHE
As to the kind of experiment: LanthaScreen TR-FRET LXRβ coactivator assay (LXR binding assay). The class given is biochemical. The note with it: agonist; average values; read-out: LXRβ EC50. The protocol:
(§1) Binding assays of graded concentrations of vitamin D3 or lumisterol hydroxyderivatives to LXRα/β were performed using the LanthaScreen TR-FRET LXRα/β Coactivator kit (Thermo Fisher Scientific, Inc., Waltham, MA) following the manufacture’s protocol. Briefly, after addition of LXRα/β-LBD to the derivatives, a mixture of peptide (Fluorescein-TRAP220/DRIP-2 for LXRα or Fluorescein-D22 for LXRβ) and antibody (Tb-anti-GST) was added to the reaction followed by incubation in room temperature for 2 h. TR-FRET ratio was calculated by dividing the emission at 520 nm by the emission at 495 nm using Synergy neo2 (BioTek, Winooski, VT).

The target of another experiment is T2, LBD of LXRα (Homo sapiens, UniProt Q13133).
T2 construct: after addition of LXRα/β-LBD to the derivatives; purchased Thermo Fisher Scientific
T2 sequence (Q13133 209-447 limits assumed): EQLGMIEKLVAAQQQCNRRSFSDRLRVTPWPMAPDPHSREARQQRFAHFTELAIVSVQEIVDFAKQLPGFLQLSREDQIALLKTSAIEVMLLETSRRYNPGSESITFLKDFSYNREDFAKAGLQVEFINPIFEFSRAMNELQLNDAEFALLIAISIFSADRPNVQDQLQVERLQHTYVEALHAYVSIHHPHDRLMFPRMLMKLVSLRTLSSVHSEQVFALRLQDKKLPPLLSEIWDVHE
Nature of the experiment: LanthaScreen TR-FRET LXRα coactivator assay (LXR binding assay). Type of experiment: biochemical. As to conditions: agonist; average values; read-out: LXRα EC50. As to the method: as §1
Background: In TR-FRET formats the signal depends on donor and acceptor labels being close together.

Another experiment has as its system ABCA1. As to the kind of experiment: qPCR of ABCA1 in HaCaT keratinocytes. Type of experiment: cell-based, human. As to conditions: 10^–7 M. As to the method: HaCaT keratinocytes were cultured as described previously. For RNA isolation the cells were maintained in TPP tissue culture petri dishes (Ø60 mm, 22.1 cm^2) in DMEM containing 10% cFBC to reach semi-confluence and then exposed to 10^–7 M compounds or a corresponding concentration of ethanol solvent.
RNA isolated from either fibroblasts, HaCaT cells or brain was submitted for cDNA synthesis (High Capacity cDNA Reverse Transcription Kit with RNase Inhibitor, Applied Biosystems) following the manufacturers’ protocols. RT-PCR was carried out using Cyber green, in triplicates; as previously described. Approximately, 750 ng of cDNA was used for PCR reactions. GAPDH and CIC-B were used as internal controls. Primer sequences are listed in Supplementary Table 27. Data were analyzed using GraphPad Prism statistical software one way ANOVA or t-test, where appropriate; *p < 0.05; **p < 0.01; ***p < 0.001.

Another experiment concerns the target T3, LXRα (Homo sapiens, UniProt Q13133).
T3 construct: endogenous in cells; host or cells: HaCaT keratinocytes
T3 sequence (Q13133 1-447): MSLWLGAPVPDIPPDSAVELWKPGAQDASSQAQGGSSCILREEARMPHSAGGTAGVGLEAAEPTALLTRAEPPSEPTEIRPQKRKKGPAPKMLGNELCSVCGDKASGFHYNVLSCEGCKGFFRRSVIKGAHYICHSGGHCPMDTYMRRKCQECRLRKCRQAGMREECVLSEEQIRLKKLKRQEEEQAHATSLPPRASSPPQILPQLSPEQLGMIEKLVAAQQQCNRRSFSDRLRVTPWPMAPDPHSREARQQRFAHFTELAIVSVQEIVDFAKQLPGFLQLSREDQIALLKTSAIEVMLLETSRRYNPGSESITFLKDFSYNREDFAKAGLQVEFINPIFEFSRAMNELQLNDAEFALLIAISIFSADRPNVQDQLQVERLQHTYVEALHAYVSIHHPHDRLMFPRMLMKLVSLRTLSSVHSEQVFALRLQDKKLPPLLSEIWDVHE
Nature of the experiment: Ligand induced translocation of LXRα to the nucleus, immunofluorescence in HaCaT. As to conditions: 10^−7 M, 24 h. The class given is cell-based. The protocol:
(§2) HaCaT cells were plated in DMEM plus 5% cFBS either on a sterile glass cover slip placed in a well of a 6-well plates for immunofluorescence (IF) assays or TPP Petri dishes for image-stream flow cytometry, and treated with 10^–7 M D3- or L3-hydroxyderivatives or 0.1% ethanol (vehicle) as a negative control was added to each well, and the cells were incubated for 12 or 24 h at 37 °C with 5% CO2. For IF the cells were fixed in 4% paraformaldehyde for 15 min, incubated in 0.5% Triton X-100 in phosphate-buffered saline (PBS) for 5 min, and washed 3 times in PBS. After blocking with 2% bovine serum albumin (BSA) in PBS for 1 h at room temperature, the cells were treated with an anti-LXRα antibody (Novus Biologicals, LLC, Centennial, CO) at 1:200 in PBS supplemented with 2% BSA overnight in 4 °C. After washing the slides were incubated with a mouse anti-rabbit IgG-FITC (Santa Cruz Biotechnology, Inc, Dallas, TX) at 1:200 dilution for 1.5 h at 37 °C. After washing the slides were mounted using propidium iodide (PI) (Vector Labs, Burlingame, California) as a nuclear counterstain. The slides were examined using a KEYENCE America BZ-X710 Fluorescence Microscope (Itasca, IL). The images were subsequently analyzed using the JACoP plugin for colocalization analysis with ImageJ[74]. Five separate high-power field (40×) images were converted to grayscale and analyzed for each condition. Manders’ coefficient (M1), calculated using a preset threshold, was used to quantify the degree of colocalization between PI and LXRα with 0 representing no colocalization, and 1 representing perfect colocalization.

The next experiment has as its system LXRα/β. As to the kind of experiment: Ligand induced translocation of LXRα/β to the nucleus, imaging flow cytometry in HaCaT. Type of experiment: cell-based, human. As to conditions: 10^–7 M, 12 h. As to the method: as §2
For Image Stream II (Amnis, Seattle, WA, USA) cytometer analyses, HaCaT cells were detached and processed as previously described. The cells were fixed with paraformaldehyde and permeabilized in methanol containing buffer[78],[79] and Hoechst stain (r37165, ThermoFisher) and rabbit antibodies to LXRα/β (sc 377260, AF 647, SantaCruz) or VDR (sc-13133, AF 488, SantaCruz) as described previously. Data were analyzed using IDEAS software (Amnis, Seattle, WA, USA).

The next experiment concerns the target T4, VDR (Homo sapiens, UniProt P11473).
T4 construct: endogenous in cells; host or cells: HaCaT keratinocytes
T4 sequence (P11473 1-427): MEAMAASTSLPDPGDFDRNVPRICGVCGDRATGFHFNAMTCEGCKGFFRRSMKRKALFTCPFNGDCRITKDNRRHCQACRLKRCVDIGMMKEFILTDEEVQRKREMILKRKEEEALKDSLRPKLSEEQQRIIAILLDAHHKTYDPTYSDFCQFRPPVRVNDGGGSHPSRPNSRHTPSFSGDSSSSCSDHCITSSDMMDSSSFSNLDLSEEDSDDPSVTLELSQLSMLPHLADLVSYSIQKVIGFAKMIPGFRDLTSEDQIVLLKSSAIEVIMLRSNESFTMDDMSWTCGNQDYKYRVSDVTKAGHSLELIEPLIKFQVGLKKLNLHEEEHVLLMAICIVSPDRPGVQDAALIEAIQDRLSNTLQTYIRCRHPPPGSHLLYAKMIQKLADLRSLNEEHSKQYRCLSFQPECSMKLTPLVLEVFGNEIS
Nature of the experiment: Translocation of VDR to the nucleus, imaging flow cytometry in HaCaT. Type of experiment: cell-based. The note with it: 10^–7 M, 12 h. (Flow cytometry measures light scatter and fluorescence of single cells or particles in a stream.)

A word on the EC50: it is the concentration at which the effect is half-maximal.

As for `C=C1C(=CC=C2CCCC3(C)C2CCC3C(C)(O)CCC(O)C(C)C)CC(O)CC1O` (stereo not drawn) [1,20,24(OH)3D3], in experiment [1] (CHO and HaCaT cells (Fig. 4C)), the “LXRE luciferase (transcriptional) activity” value (from here on “LXRE luciferase”) is “strongest stimulatory effects”.

On to `C=C1C(=CC=C2CCCC3(C)C2CCC3C(C)(O)CCCC(C)(C)O)CC(O)CC1O` (stereo not drawn) [1,20,25(OH)3D3], for which the EC50 on LBD of LXRβ turned out to be 3.8 nM. Further, the “LXRE luciferase” value in experiment [1] (CHO and HaCaT cells (Fig. 4C)) is “strongest stimulatory effects”.

For `C=C1CCC(O)CC1=CC=C1CCCC2(C)C1CCC2(O)C(C)O` (stereo not drawn) [17,20(OH)2pD], the EC50 was 30000 nM on LBD of LXRα and 2600 nM at LBD of LXRβ. In experiment [1] (CHO cells), the “LXRE luciferase” value is given as “weakest stimulant”.

`C=C1CC[C@H](O)C/C1=C/C=C1\CCC[C@]2(C)[C@@H]([C@H](C)CCCC(C)(C)O)CC[C@@H]12` [25(OH)D3, reference compound]: the EC50 on LBD of LXRα is 11 nM; on LBD of LXRβ it was 3800 nM. Moreover, the “ABCA1 RNA expression (qPCR)” value with ABCA1 was “stimulation”. Besides, at LXRα, the “translocation of LXRα to the nucleus (immunofluorescence, Manders' coefficient)” value is recorded as “induced translocation”. For the same compound, the “translocation of LXRα/β from the cytoplasm to the nucleus” value in the experiment with LXRα/β is given as “increased translocation”. For the same compound, the “translocation of VDR from the cytoplasm to the nucleus” value on VDR is listed as “increased translocation”.
